Experiment [1] addresses T1, 20S proteasome β1 subunit (Homo sapiens, UniProt P28072+Q99436).
T1 construct: endogenous in cells; host or cells: K562
The experiment can be described thus: Proteasome-Glo Cell-Based assay in K562 cells, β1 subunit. To be noted: 2 h incubation. Here is the method:
Proteasome-Glo™ Cell-Based assay kit (Promega, USA) was used to determine the activity of the target compound against the 20S proteasome. Human chronic myeloid leukemia cell line (K562, 6000 cells/well) was inoculated into the 384 well plate in 20 μL/well. The cells were then equilibrated at 37° C., 5% CO2 for 2 hours. Each 384 well plate was set with the mock group and treatment group, and each well of the treatment group was added with 5 μL of the compound solution with the final concentration of 40 μM, 13.3 μM, 4.44 μM, 1.48 μM, 0.49 μM, 0.16 μM, 0.055 μM, 0.0183 μM, […], 0.0061 μM. The cells was incubated with the drugs for 2 hours at 37° C., 5% CO2 before adding 25 μL of corresponding Proteasome-Glo™ Cell-Based reagent per well. The relative luminescence unit (RLU) was measured by using Multimode Microplate Reader Varioskan Flash (Thermo Scientific, USA) after 15 min and compared with the RLU of the control group. SigmaPlot 10.0 software was used to calculate IC50 value.

For a further experiment, the system named is A549. Description: MTT antitumor spectrum, A549. The format is cell-based. The following applies: Homo sapiens, 72 h. Here is the method:
(§1) The activity of compound 30 was evaluated by MTT method against seven tumor cell models, A549, A375, HCT116, MDA-MB-231, HepG2, PC3 and MCF-7. All cells used in the study were prepared at a concentration of 3.5×10^3 cells/mL, and each […] cell suspension was inoculated on a 96-well microtiter plate for 24 hours (37° C., 5% CO2). Then different concentrations of compound 30 were added, incubated for 72 hours; and for the control group, equivalent concentrations of DMSO (final concentration 0.5%) were added. The number of viable cells was measured by MTT (3-(4,5-dimethylthiazol-2-yl)-diphenyl tetrazolium bromide) method, and the OD value at 492/620 nm was recorded. The IC50 value was calculated by Prism-Graphpad software based on the results of triplicate experiments.

In the next experiment the test system is MDA-MB-231. Description: MTT antitumor spectrum, MDA-MB-231. The format is cell-based. The following applies: Homo sapiens, 72 h. Here is the method: as §1

Regarding `CC(C)C[C@H](NC(=O)Cn1nc(-c2cccc(OCCN3CCOCC3)c2)cc1-c1ccccc1)B(O)O.Cl` [Compound 30, (R)-(3-methyl-1-(2-(3-(3-(2-morpholinoethoxy)phenyl)-5-phenyl-1H-pyrazol-1-yl)-acetamido)butyl)boronic acid hydrochloride], the IC50 came out at 2040 nM in experiment [1], 3.05 µM with A549 and 940 nM with MDA-MB-231.

Source of the values: patent US12473305B2, “Pyrazole boronic acid compound, pharmaceutical composition containing same, and uses thereof” (BEIJING SONGRUN PHARMACEUTICAL TECHNOLOGY CO., LTD., priority 2020, dated 2025).
